Laboratory results as given in ChEMBL document CHEMBL4043259, “From UTP to AR-C118925, the discovery of a potent non nucleotide antagonist of the P2Y2 receptor” (Bioorg Med Chem Lett, 2017).

target: P2Y purinoceptor 2 (Homo sapiens, UniProt P41231); assay: Antagonist activity at human P2Y2R expressed in human Jurkat cells assessed as inhibition of UTP-activated intracellular calcium mobilization by fluo-3AM dye based fluorescence assay; assay type: functional, cell-based; conditions: read-out: pA2 (converted)
Sequence (P41231 whole entry): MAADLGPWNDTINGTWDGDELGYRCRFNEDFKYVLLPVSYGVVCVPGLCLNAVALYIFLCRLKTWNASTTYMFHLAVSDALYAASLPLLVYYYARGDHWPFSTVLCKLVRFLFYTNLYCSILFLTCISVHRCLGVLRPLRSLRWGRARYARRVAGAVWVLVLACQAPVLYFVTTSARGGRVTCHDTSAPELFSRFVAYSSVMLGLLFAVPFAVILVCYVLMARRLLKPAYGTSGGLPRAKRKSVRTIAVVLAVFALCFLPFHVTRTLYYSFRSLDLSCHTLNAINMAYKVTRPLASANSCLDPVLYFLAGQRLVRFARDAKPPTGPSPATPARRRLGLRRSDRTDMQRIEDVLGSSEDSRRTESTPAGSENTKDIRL

Structure (SMILES)	Kb
O=c1[nH]c(=S)c(C(c2ccccc2)c2ccccc2)cn1[C@@H]1O[C@H](COP(=O)(O)OP(=O)(O)C(Cl)(Cl)P(=O)(O)O)[C@@H](O)[C@H]1O	1000 nM
COc1ccc(C(c2ccc(OC)cc2)c2cn([C@@H]3O[C@H](COP(=O)(O)OP(=O)(O)C(Cl)(Cl)P(=O)(O)O)[C@@H](O)[C@H]3O)c(=O)[nH]c2=S)cc1	79.4 nM
O=c1[nH]c(=S)c(C2c3ccccc3Oc3ccccc32)cn1[C@@H]1O[C@H](COP(=O)(O)OP(=O)(O)C(Cl)(Cl)P(=O)(O)O)[C@@H](O)[C@H]1O	50.1 nM
O=c1[nH]c(=S)c(C2c3ccccc3C=Cc3ccccc32)cn1[C@@H]1O[C@H](COP(=O)(O)OP(=O)(O)C(Cl)(Cl)P(=O)(O)O)[C@@H](O)[C@H]1O	3.16 nM
O=C(O)c1ccc(Cn2cc(C3c4ccccc4C=Cc4ccccc43)c(=S)[nH]c2=O)o1	1260 nM
O=C(O)Cc1cccc(Cn2cc(C3c4ccccc4C=Cc4ccccc43)c(=S)[nH]c2=O)c1	2000 nM
Cc1ccc2c(c1)C=Cc1cc(C)ccc1C2c1cn(Cc2ccc(C(=O)Nc3nc(CC(=O)O)cs3)o2)c(=O)[nH]c1=S	31.6 nM
O=C(O)c1cc(Cn2cc(C3c4ccccc4C=Cc4ccccc43)c(=S)[nH]c2=O)cs1	2510 nM
O=c1[nH]c(=S)c(C(c2ccc(Cl)c(Cl)c2)c2ccc(Cl)c(Cl)c2)cn1[C@@H]1O[C@H](COP(=O)(O)OP(=O)(O)C(Cl)(Cl)P(=O)(O)O)[C@@H](O)[C@H]1O	20 nM
O=C(O)c1csc(Cn2cc(C3c4ccccc4C=Cc4ccccc43)c(=O)[nH]c2=O)n1	39800 nM
O=c1[nH]c(=S)c(C2c3ccccc3C=Cc3ccccc32)cn1[C@@H]1O[C@H](CO)[C@@H](O)[C@H]1O	20000 nM
O=C(O)c1ccc(Cn2cc(C3c4ccc(Cl)cc4C=Cc4cc(Cl)ccc43)c(=S)[nH]c2=O)o1	200 nM
Cc1ccc2c(c1)C=Cc1cc(C)ccc1C2c1cn(Cc2ccc(C(=O)Nc3nc(CC(=O)N[C@@H](CC(=O)O)C(=O)O)cs3)o2)c(=O)[nH]c1=S	63.1 nM
Cc1ccc2c(c1)C=Cc1cc(C)ccc1C2c1cn(Cc2nc(C(=O)O)cs2)c(=O)[nH]c1=S	251 nM
Cc1ccc(C(c2ccc(C)cc2)c2cn([C@@H]3O[C@H](COP(=O)(O)OP(=O)(O)C(Cl)(Cl)P(=O)(O)O)[C@@H](O)[C@H]3O)c(=O)[nH]c2=S)cc1	15.8 nM
O=c1[nH]c(=S)c(C2c3ccccc3CCc3ccccc32)cn1[C@@H]1O[C@H](COP(=O)(O)OP(=O)(O)C(Cl)(Cl)P(=O)(O)O)[C@@H](O)[C@H]1O	10 nM
O=C(O)COc1cccc(Cn2cc(C3c4ccccc4C=Cc4ccccc43)c(=S)[nH]c2=O)c1	2510 nM
O=C(O)c1csc(Cn2cc(C3c4ccccc4C=Cc4ccccc43)c(=S)[nH]c2=O)n1	2000 nM
Cc1ccc2c(c1)C=Cc1cc(C)ccc1C2c1cn(Cc2ccc(C(=O)N[C@@H](CC(=O)O)C(=O)O)o2)c(=O)[nH]c1=S	25.1 nM
O=c1[nH]c(=S)c(C(c2ccc(Cl)cc2)c2ccc(Cl)cc2)cn1[C@@H]1O[C@H](COP(=O)(O)OP(=O)(O)C(Cl)(Cl)P(=O)(O)O)[C@@H](O)[C@H]1O	12.6 nM
O=c1[nH]c(=S)c(C2c3ccccc3-c3ccccc32)cn1[C@@H]1O[C@H](COP(=O)(O)OP(=O)(O)C(Cl)(Cl)P(=O)(O)O)[C@@H](O)[C@H]1O	63.1 nM
O=C(O)c1cccc(Cn2cc(C3c4ccccc4C=Cc4ccccc43)c(=S)[nH]c2=O)c1	3980 nM
O=C(O)c1coc(Cn2cc(C3c4ccccc4C=Cc4ccccc43)c(=S)[nH]c2=O)n1	1580 nM
O=C(O)c1cnc(Cn2cc(C3c4ccccc4C=Cc4ccccc43)c(=S)[nH]c2=O)s1	6310 nM
Cc1ccc2c(c1)C=Cc1cc(C)ccc1C2c1cn(Cc2nc(C(=O)N[C@@H](CC(=O)O)C(=O)O)cs2)c(=O)[nH]c1=S	39.8 nM
Cc1ccc2c(c1)C=Cc1cc(C)ccc1C2c1cn(Cc2ccc(C(=O)O)o2)c(=O)[nH]c1=S	100 nM
O=C(O)c1cccc(Cn2cc(C3c4ccccc4C=Cc4ccccc43)c(=S)[nH]c2=O)n1	3980 nM

tested on: not listed separately; assay: Clearance in rat administered via iv; assay type: ADME; conditions: in vivo

Structure (SMILES)	clearance
Cc1ccc2c(c1)C=Cc1cc(C)ccc1C2c1cn(Cc2ccc(C(=O)Nc3nnn[nH]3)o2)c(=O)[nH]c1=S	75 mL/min/kg

tested on: not listed separately; assay: Volume of distribution at steady state in rat administered via iv; assay type: ADME; conditions: in vivo, read-out: Vdss

Structure (SMILES)	Vd
Cc1ccc2c(c1)C=Cc1cc(C)ccc1C2c1cn(Cc2ccc(C(=O)Nc3nnn[nH]3)o2)c(=O)[nH]c1=S	4.34 L/kg

tested on: not listed separately; assay: Half life in rat administered via iv; assay type: ADME; conditions: in vivo

Structure (SMILES)	half-life
Cc1ccc2c(c1)C=Cc1cc(C)ccc1C2c1cn(Cc2ccc(C(=O)Nc3nnn[nH]3)o2)c(=O)[nH]c1=S	2.12 h

tested on: not listed separately; assay: Bioavailability in rat; assay type: ADME, organism-based; conditions: in vivo

Structure (SMILES)	bioavailability
Cc1ccc2c(c1)C=Cc1cc(C)ccc1C2c1cn(Cc2ccc(C(=O)Nc3nnn[nH]3)o2)c(=O)[nH]c1=S	0%
